Assay results published in PubChem BioAssay AID248 (DTP/NCI, 2004).
Several values for one entry are separate records, joined by “and”; a condition that tells them apart may be missing. Identical values can stand only once. Toxic doses and inconclusive results are not listed.

Tested on: L1210 leukemia ip in BDF1 mice, survival T/C
Assay: NCI In Vivo Anticancer Drug Screen. Data for tumor model L1210 Leukemia (intraperitoneal) in B6D2F1 (BDF1) mice
Details: endpoint: mean survival time, higher = longer survival
In short: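 Ratio derived from survival: compound-dosed mice over vehicle-dosed mice, all bearing a transplantable tumor.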

[1] = dose: 12.5 mg/kg/injection, schedule: Q04DX002 (ip), vehicle: Klucel (hydroxypropylcellulose) (HPC)
[2] = dose: 25.0 mg/kg/injection, schedule: Q04DX002 (ip), vehicle: Klucel (hydroxypropylcellulose) (HPC)
[3] = dose: 100.0 mg/kg/injection, schedule: Q01DX001 (ip), vehicle: saline
[4] = dose: 200.0 mg/kg/injection, schedule: Q01DX001 (ip), vehicle: saline
[5] = dose: 400.0 mg/kg/injection, schedule: Q01DX001 (ip), vehicle: saline
[6] = dose: 25.0 mg/kg/injection, schedule: Q01DX009 (ip), vehicle: Klucel (hydroxypropylcellulose) (HPC)
[7] = dose: 50.0 mg/kg/injection, schedule: Q01DX009 (ip), vehicle: Klucel (hydroxypropylcellulose) (HPC)
[8] = dose: 100.0 mg/kg/injection, schedule: Q01DX009 (ip), vehicle: Klucel (hydroxypropylcellulose) (HPC)
[9] = dose: 100.0 mg/kg/injection, schedule: Q04DX003 (ip), vehicle: Klucel (hydroxypropylcellulose) (HPC)
[10] = dose: 200.0 mg/kg/injection, schedule: Q01DX009 (ip), vehicle: Klucel (hydroxypropylcellulose) (HPC)
[11] = dose: 200.0 mg/kg/injection, schedule: Q04DX003 (ip), vehicle: Klucel (hydroxypropylcellulose) (HPC)
[12] = dose: 50.0 mg/kg/injection, schedule: Q01DX009 (ip), vehicle: saline
[13] = dose: 100.0 mg/kg/injection, schedule: Q04DX003 (ip), vehicle: saline with Tween-80
[14] = dose: 200.0 mg/kg/injection, schedule: Q04DX003 (ip), vehicle: saline with Tween-80
[15] = dose: 100.0 mg/kg/injection, schedule: Q04DX002 (ip), vehicle: Klucel (hydroxypropylcellulose) (HPC)
[16] = dose: 200.0 mg/kg/injection, schedule: Q04DX002 (ip), vehicle: Klucel (hydroxypropylcellulose) (HPC)
[17] = dose: 400.0 mg/kg/injection, schedule: Q01DX009 (ip), vehicle: Klucel (hydroxypropylcellulose) (HPC)
[18] = dose: 400.0 mg/kg/injection, schedule: Q04DX003 (ip), vehicle: Klucel (hydroxypropylcellulose) (HPC)
[19] = dose: 400.0 mg/kg/injection, schedule: Q04DX003 (ip), vehicle: saline with Tween-80
[20] = dose: 100.0 mg/kg/injection, schedule: Q01DX009 (ip), vehicle: saline with Tween-80
[21] = dose: 200.0 mg/kg/injection, schedule: Q01DX009 (ip), vehicle: saline with Tween-80
[22] = dose: 400.0 mg/kg/injection, schedule: Q01DX009 (ip), vehicle: saline with Tween-80

Structure (SMILES): NC(CSS(=O)(=O)O)=NCc1ccccc1
- T/C [1]: 114 % of control
- T/C [2]: 101 % of control
- T/C (dose: 50.0 mg/kg/injection, schedule: Q04DX002 (ip), vehicle: Klucel (hydroxypropylcellulose) (HPC)): 97 % of control

Structure (SMILES): Nc1ncnc2scnc12
- T/C [3]: 102 % of control
- T/C [4]: 99 % of control
- T/C [5]: 100 % of control

Structure (SMILES): O=C(NNS(=O)(=O)c1ccc([N+](=O)[O-])cc1)c1ccccc1
- T/C (dose: 100.0 mg/kg/injection, schedule: Q01DX001 (ip), vehicle: carboxymethylcellulose (CMC)): 105 % of control
- T/C (dose: 200.0 mg/kg/injection, schedule: Q01DX001 (ip), vehicle: carboxymethylcellulose (CMC)): 102 % of control
- T/C (dose: 400.0 mg/kg/injection, schedule: Q01DX001 (ip), vehicle: carboxymethylcellulose (CMC)): 100 % of control

Structure (SMILES): CC1=NCCCN=C(C)C(C)=NCCCN=C1C.[Br][Co][Br]
- T/C [6]: 100 % of control
- T/C [7]: 96 % of control
- T/C [8]: 95 % of control
- T/C [9]: 106 % of control
- T/C [10]: 110 % of control
- T/C [11]: 90 % of control

Structure (SMILES): CC(C)CCCC(C)C1CCC2C3CC=C4CC([S+](C)C)CCC4(C)C3CCC12C (configuration not stated)
- T/C (dose: 25.0 mg/kg/injection, schedule: Q01DX009 (ip), vehicle: saline): 96 % of control
- T/C [12]: 96 % of control
- T/C (dose: 100.0 mg/kg/injection, schedule: Q04DX003 (ip), vehicle: alcohol): 98 % of control

Structure (SMILES): CCN(CC)C(=O)C1C2C=CC(C2)C1C(=O)N(CC)CC (configuration not stated)
- T/C [13]: 98 % of control
- T/C [14]: 98 % of control

Structure (SMILES): O=C(OC1CC2CCC1CC2)c1ccc([N+](=O)[O-])cc1 (configuration not stated)
- T/C [3]: 97 % of control
- T/C [4]: 95 % of control
- T/C [5]: 92 % of control

Structure (SMILES): CCS/C(Cl)=C(\Cl)SCC
- T/C [6]: 101 % of control
- T/C [7]: 106 % of control
- T/C [8]: 102 % of control and 109 % of control

Structure (SMILES): CC(=O)OC(C(O)C=O)C(O)C(O)CO (configuration not stated) (tested in a mixture with another compound)
- T/C [15]: 107 % of control
- T/C [16]: 88 % of control

Structure (SMILES): CN(C)c1ccc(/C=C\C(=O)c2ccccc2)cc1
- T/C (dose: 50.0 mg/kg/injection, schedule: Q01DX001 (ip), vehicle: saline): 96 % of control
- T/C [12]: 94 % of control
- T/C [3]: 102 % of control
- T/C [8]: 95 % of control
- T/C (dose: 100.0 mg/kg/injection, schedule: Q01DX009 (ip), vehicle: saline): 102 % of control
- T/C [9]: 94 % of control
- T/C [4]: 111 % of control
- T/C [10]: 95 % of control
- T/C (dose: 200.0 mg/kg/injection, schedule: Q01DX009 (ip), vehicle: saline): 97 % of control
- T/C [11]: 93 % of control
- T/C [5]: 94 % of control
- T/C [17]: 97 % of control
- T/C [18]: 94 % of control

Structure (SMILES): COc1cc(C(=O)O/N=C(\N)CCl)cc(OC)c1OC
- T/C (dose: 6.25 mg/kg/injection, schedule: Q04DX002 (ip), vehicle: Klucel (hydroxypropylcellulose) (HPC)): 92 % of control
- T/C [1]: 88 % of control
- T/C [2]: 88 % of control

Structure (SMILES): O=P(OCCCCl)(OCCCCl)C(Cl)(Cl)Cl
- T/C [3]: 102 % of control
- T/C [4]: 101 % of control
- T/C [5]: 101 % of control

Structure (SMILES): NC(=O)CC1CCCCC1
- T/C [9]: 97 % of control
- T/C [11]: 105 % of control
- T/C [18]: 103 % of control

Structure (SMILES): O=C1NC(=O)c2ccc(Br)c3cccc1c23
- T/C [15]: 96 % of control
- T/C [16]: 96 % of control
- T/C (dose: 400.0 mg/kg/injection, schedule: Q04DX002 (ip), vehicle: Klucel (hydroxypropylcellulose) (HPC)): 93 % of control

Structure (SMILES): CCSc1ccc2c(cc1=O)C(NC(=O)NC)CCc1cc(OC)c(OC)c(OC)c1-2 (configuration not stated)
- T/C [6]: 116 % of control
- T/C [7]: 112 % of control
- T/C [8]: 92 % of control

Structure (SMILES): CN1C2CCC1C(=O)N(Cc1ccccc1)C2=O
- T/C [13]: 102 % of control
- T/C [14]: 93 % of control
- T/C [19]: 101 % of control

Structure (SMILES): Cc1cncc(CC(O)(C(F)(F)F)C(F)(F)F)n1
- T/C [3]: 102 % of control
- T/C [20]: 97 % of control
- T/C [4]: 96 % of control
- T/C [21]: 103 % of control
- T/C [5]: 104 % of control
- T/C [22]: 101 % of control

Structure (SMILES): O=C(O)c1ccsc1Cc1cccs1
- T/C (dose: 100.0 mg/kg/injection, schedule: Q01DX001 (ip), vehicle: Klucel (hydroxypropylcellulose) (HPC)): 101 % of control
- T/C [20]: 97 % of control and 89 % of control
- T/C (dose: 200.0 mg/kg/injection, schedule: Q01DX001 (ip), vehicle: Klucel (hydroxypropylcellulose) (HPC)): 92 % of control
- T/C [21]: 96 % of control and 100 % of control
- T/C (dose: 400.0 mg/kg/injection, schedule: Q01DX001 (ip), vehicle: Klucel (hydroxypropylcellulose) (HPC)): 106 % of control
- T/C [22]: 93 % of control and 89 % of control

Structure (SMILES): CC(C)(C)C(=O)CC(=O)C(C)(C)C.CC(C)(C)C(=O)CC(=O)C(C)(C)C.CC(C)(C)C(=O)CC(=O)C(C)(C)C.CC(C)(C)C(=O)CC(=O)C(C)(C)C.[Er]
- T/C [13]: 108 % of control
- T/C [14]: 92 % of control
- T/C [19]: 88 % of control

Structure (SMILES): CCCCn1cnc2c(=S)nc(N)[nH]c21
- T/C (dose: 3.3 mg/kg/injection, schedule: Q01DX Z (ip), vehicle: methylcellulose (MC)): 115 % of control
- T/C (dose: 5.0 mg/kg/injection, schedule: Q01DX Z (ip), vehicle: methylcellulose (MC)): 118 % of control
- T/C (dose: 19.0 mg/kg/injection, schedule: Q04DX003 (ip), vehicle: saline with Tween-80): 111 % of control
- T/C (dose: 66.0 mg/kg/injection, schedule: Q04DX003 (ip), vehicle: saline with Tween-80): 164 % of control

Structure (SMILES): O=C1c2cccc(S(=O)(=O)O)c2C(=O)c2cccc([N+](=O)[O-])c21
- T/C [9]: 98 % of control
- T/C [11]: 91 % of control
- T/C [18]: 94 % of control

Structure (SMILES): CC(C)C1(C(=O)N2CCCCC2=O)SCCCS1
- T/C [13]: 94 % of control
- T/C [14]: 90 % of control
- T/C [19]: 92 % of control

Structure (SMILES): CC(c1ccc(Br)cc1)N(C)C (configuration not stated)
- T/C (dose: 10.0 mg/kg/injection, schedule: Q01DX001 (ip), vehicle: saline): 102 % of control
- T/C (dose: 20.0 mg/kg/injection, schedule: Q01DX001 (ip), vehicle: saline): 93 % of control
- T/C (dose: 40.0 mg/kg/injection, schedule: Q01DX001 (ip), vehicle: saline): 98 % of control
- T/C (dose: 80.0 mg/kg/injection, schedule: Q01DX001 (ip), vehicle: saline): 98 % of control

Structure (SMILES): OC(CBr)c1ccc(Cl)c(Cl)c1 (configuration not stated)
- T/C [8]: 103 % of control
- T/C [9]: 97 % of control
- T/C [10]: 105 % of control
- T/C [11]: 103 % of control
- T/C [17]: 97 % of control
- T/C [18]: 103 % of control

Structure (SMILES): c1cc[c]([Sn]([S]c2ccccn2)([c]2ccccc2)[c]2ccccc2)cc1
- T/C (dose: 6.25 mg/kg/injection, schedule: Q04DX002 (ip), vehicle: saline with Tween-80): 93 % of control
- T/C (dose: 12.5 mg/kg/injection, schedule: Q04DX002 (ip), vehicle: saline with Tween-80): 93 % of control
- T/C (dose: 25.0 mg/kg/injection, schedule: Q04DX002 (ip), vehicle: saline with Tween-80): 108 % of control

Structure (SMILES): NC(=S)c1cccc(OCc2ccccc2)c1
- T/C [20]: 106 % of control
- T/C [21]: 92 % of control

Structure (SMILES): CCCCCCCCc1ccc(C(=O)O)cc1
- T/C [9]: 105 % of control
- T/C [11]: 101 % of control
- T/C [18]: 91 % of control
